Literature values in US9758831B2, “Methods of predicting clinical course and treating multiple sclerosis” (Tel HaShomer Medical Research Infrastructure and Services …, priority 2009, dated 2017).

Assays:
[1] = test system: Experimental Autoimmune Encephalomyelitis; settings: in vivo
RRN3/rpa43 complex = settings: in vivo

Row | Compound | T-cell inflammatory responses [1] | effect on Experimental Autoimmune Encephalomyelitis [1] | IFNγ production (T lymphocyte) | T cell apoptosis (T lymphocyte) | lymphocyte proliferation (T lymphocyte) | IL2 and IL2 receptor expression (T lymphocyte; activated T cells) | TNF-a and IL-6 production (activated macrophages) | maturation, antigen processing and presentation of dendritic cells (dendritic cells) | association of RRN3 with RNA polymerase I (RRN3) | phosphorylation of RRN3 (RRN3) | formation of RRN3/rpa43 complex (RRN3/rpa43 complex)
1 | CC(C)[C@]12O[C@H]1[C@@H]1O[C@]13[C@]1(O[C@H]1C[C@H]1C4=C(CC[C@@]13C)C(=O)OC4)[C@@H]2O [Triptolide, Trisoxireno(4b,5:6,7:8a,9)phenanthro(1,2-c)furan-1(3H)-one, 3b,4,4a,6,6a,7a,7b,8b,9,10-decahydro-6-hydroxy-8b-methyl-6a-(1-methylethyl)-, (3bS,4aS,5aS,6R,6aR,7aS,7bS,8aS,8bS)-] | modulates T-cell inflammatory responses | ameliorates Experimental Autoimmune Encephalomyelitis | inhibition | T cell apoptosis induction | inhibition of lymphocyte prolipheration | decreased | can suppress | can inhibit | – | – | –
2 | C[C@@H]1C[C@@H]([C@H](O)CC2CC(=O)NC(=O)C2)C(=O)[C@@H](C)C1 [Cycloheximide] | – | – | – | – | – | – | – | – | causes its dissociation from RNA polymerase I | inhibits the phosphorylation of RRN3 | inhibits the formation of a RRN3/rpa43 complex in vivo
